Measured values as given in patent publication US11154477B2, “Use of alkanolamine alkylamides as humectants” (Akzo Nobel Chemicals International B.V., priority 2016, dated 2021).

Experiments:
[1] = Dynamic Vapor Sorption (DVS) measurement of water absorption by humectants; assay type: physicochemical; conditions: for Percentage of water absorbed based on weight of the tested compound: 25° C., equilibrium
Protocol: Dynamic Vapor Sorption (DVS) technique was used to measure the moisture intake of a specific compound at certain humidity level. A DVS Intrinsic instrument manufactured by Surface Measurement Systems UK Ltd. (London, United Kingdom) was used to measure DVS. The following measurement procedure was used to determine the water vapor absorption of a specific compound.
A uniform aqueous solution of a specific, target compound was made at 50% concentration. About 1.2 to 1.6 mg of the prepared aqueous solution was added to DVS instrument at zero tare balance. The temperature was then set at 25° C., and the measurement was performed at various humidity levels. The first measurement was performed at a humidity of 90% to ensure that the sample absorbs the highest level of water in order to minimize the mass transfer barrier during the evaporation process. The typical humidity measurements were then taken at 50%, 40%, 30%, 20%, 10%, and 0% humidity. The dynamics of water absorption was determined by the weight change per minute. If weight change per minute was less than 0.005% of the sample weight, it was deemed that water absorption had reached the equilibrium point. The equilibrium weight at 0% humidity is the sample weight by itself. Thus, the percentage of equilibrium water absorption at various humidity levels was calculated.
Using the above procedure, DVS was used to evaluate water absorption for DGA Acetamide as compared to hydroxyethyl urea and glycerol at different humidity levels.

[2] = tested on: skin (inner forearm of each panelist); experiment: Corneometer measurement of skin moisture after a single application of gel formulation; assay type: in vivo; conditions: 5 wt % gel, average of eight panelists
Protocol: To prepare a gel formulation, deionized water was added to a 4 oz. tall jar that was set up for mixing using an overhead mixer and a jiffy blade. The water was then mixed at a speed that created a good vortex that nearly reached the bottom of the jar (e.g., about 700 rpm). To this, Carbopol® 940 (cross-linked polyacrylate polymer available from Lubrizol, […], Ohio) was slowly added and mixed for at least 15 minutes until homogeneous. Triethanolamine (TEA) was then added and the mixing speed was adjusted overhead to about 200 rpm and continued mixing for about 10 minutes (e.g., product viscosity increased). To this mixture, 5 wt % of the sample compound in its pure form (or hydroxyethyl urea or glycerol control) was added followed by 0.5 wt % GlydantTM PlusTM (a preservative available from Lonza, Basel, Switzerland) and the remaining, balance water. Mixing was continued at 200 rpm for about 15-20 minutes. The mixture was then removed from the mixer and the final pH was measured. […] Moisture levels were measured using a Corneometer® CM 825 (available from CK Industries) prior to and at various time intervals after the sample application at a temperature of 22° C. and relative humidity of 50%, wherein the corneometer values recorded are the difference between the corneometer reading at a given time and the initial corneometer reading at 0 hours, which is set at zero. […]

Percentage of water absorbed based on weight of the tested compound ([1]; 10% rel. humidity) | Percentage of water absorbed based on weight of the tested compound ([1]; 20% rel. humidity) | Percentage of water absorbed based on weight of the tested compound ([1]; 30% rel. humidity) | Percentage of water absorbed based on weight of the tested compound ([1]; 40% rel. humidity) | Percentage of water absorbed based on weight of the tested compound ([1]; 50% rel. humidity) | water absorption capability (comparison in words) ([1]; 50% relative humidity) | water absorption capability (comparison in words) ([1]; relative humidity levels of 10%, 20% 30%, and 40%) | Structure (SMILES) | humectance performance (corneometer) versus glycerol ([2]; at 24 hours) | corneometer readings versus control (water) formulation ([2]; entire time range tested (24 hours), 22° C., 50% relative humidity)
2.4% | 5.4% | 9.2% | 14.1% | 19.7% | – | – | NC(=O)NCCO [Hydroxyethyl urea, hydroxyethyl urea] | – | –
4.6% | 8.6% | 15.9% | 23.3% | 27.7% | – | – | OCC(O)CO [Glycerol, glycerol] | – | –
2.6% | 5.9% | 9.9% | 15.3% | 26.9% | on par with glycerol | on par with that for hydroxyethyl urea | CC(=O)NCCOCCO [DGA acetamide, N-acetyl diglycolamine] | same as glycerol | superior to the control formulation
